Results: patent publication US10071976B2, “Small molecule fatty acid synthase inhibitors” (Sanford Burnham Prebys Medical Discovery Institute, priority 2014, dated 2018)
“And” between values parts separate entries of the source, which are not always exact repeats. Equal entries are not always repeated. Where two headings read alike, the source gives them in different places.

Tests used:
[1] = Hepatic microsome stability, human; assay type: in vitro ADME
Source text: The microsomal stability assay is commonly used to rank compounds according to their metabolic stability. This assay addresses the pharmacologic question of how long the parent compound will remain circulating in plasma within the body.

PAMPA permeability = assay type: in vitro ADME; conditions: for Papp: PAMPA, read-out: PAMPA Permeability, Pe
Method: The PAMPA (Parallel Artificial Membrane Permeability Assay) assay was used as an in vitro model of passive, transcellular permeability. An artificial membrane immobilized on a filter was placed between a donor and acceptor compartment. At the start of the test, drug was introduced in the donor compartment. Following the permeation period, the concentration of drug in the donor and acceptor compartments was measured using UV spectroscopy.

[2] = Aqueous solubility in 1x PBS, pH 7.4; assay type: physicochemical; conditions: pH 7.4, aqueous buffer
[3] = test system: other serine hydrolases in the lysate; assay: Competition with activity-based probe FP-PEG-TAMRA in PC-3 whole cell lysate: other serine hydrolases; assay type: binding, human; conditions: PC-3 lysate, 20 μM final, pH 7.8
Method: (§1) Studies were conducted to determine the selectivity of compound 16 for FASN over other human thioesterases. The ability of the compounds to bind the FASN holoenzyme was tested by assessing their ability to compete for the binding of an activity-based probe that covalently attaches to the active site of the FASN thioesterase. Thioesterases are members of the serine hydrolase family, which also includes a number of other types of enzymes including proteases, dipeptidyl peptidases, epoxide hydrolases, etc. To help assess the selectivity of compound 16, an activity-based probe polyethyleneglycol-6-carboxytetramethyl-rhodamine (FP-PEG-TAMRA) that binds covalently to the catalytic serine of all serine hydrolases was used. These studies were done by assessing the ability of compound 16 to compete for the binding of the activity-based probe in whole cell lysates. Several analogs of compound 16 were tested in this assay using lysates of the prostate tumor line (PC3), which expresses FASN, along with numerous other serine hydrolases. The PC-3 lysate was incubated with 8 different FASN inhibitors, including compounds 1, 16 and 97. Then the activity-based probe (FP-PEG-TAMRA) was added to each sample to label the serine hydrolases in the lysate.

FASN = biological target: T1, FASN (Homo sapiens, UniProt P49327); assay: Competition with activity-based probe FP-PEG-TAMRA in PC-3 whole cell lysate: FASN; assay type: binding; conditions: PC-3 lysate, 20 μM final, pH 7.8
T1 construct: lysates of the prostate tumor line (PC3), which expresses FASN; endogenous in cells; host or cells: PC-3 prostate tumour cells (whole cell lysate)
T1 sequence (P49327 whole entry): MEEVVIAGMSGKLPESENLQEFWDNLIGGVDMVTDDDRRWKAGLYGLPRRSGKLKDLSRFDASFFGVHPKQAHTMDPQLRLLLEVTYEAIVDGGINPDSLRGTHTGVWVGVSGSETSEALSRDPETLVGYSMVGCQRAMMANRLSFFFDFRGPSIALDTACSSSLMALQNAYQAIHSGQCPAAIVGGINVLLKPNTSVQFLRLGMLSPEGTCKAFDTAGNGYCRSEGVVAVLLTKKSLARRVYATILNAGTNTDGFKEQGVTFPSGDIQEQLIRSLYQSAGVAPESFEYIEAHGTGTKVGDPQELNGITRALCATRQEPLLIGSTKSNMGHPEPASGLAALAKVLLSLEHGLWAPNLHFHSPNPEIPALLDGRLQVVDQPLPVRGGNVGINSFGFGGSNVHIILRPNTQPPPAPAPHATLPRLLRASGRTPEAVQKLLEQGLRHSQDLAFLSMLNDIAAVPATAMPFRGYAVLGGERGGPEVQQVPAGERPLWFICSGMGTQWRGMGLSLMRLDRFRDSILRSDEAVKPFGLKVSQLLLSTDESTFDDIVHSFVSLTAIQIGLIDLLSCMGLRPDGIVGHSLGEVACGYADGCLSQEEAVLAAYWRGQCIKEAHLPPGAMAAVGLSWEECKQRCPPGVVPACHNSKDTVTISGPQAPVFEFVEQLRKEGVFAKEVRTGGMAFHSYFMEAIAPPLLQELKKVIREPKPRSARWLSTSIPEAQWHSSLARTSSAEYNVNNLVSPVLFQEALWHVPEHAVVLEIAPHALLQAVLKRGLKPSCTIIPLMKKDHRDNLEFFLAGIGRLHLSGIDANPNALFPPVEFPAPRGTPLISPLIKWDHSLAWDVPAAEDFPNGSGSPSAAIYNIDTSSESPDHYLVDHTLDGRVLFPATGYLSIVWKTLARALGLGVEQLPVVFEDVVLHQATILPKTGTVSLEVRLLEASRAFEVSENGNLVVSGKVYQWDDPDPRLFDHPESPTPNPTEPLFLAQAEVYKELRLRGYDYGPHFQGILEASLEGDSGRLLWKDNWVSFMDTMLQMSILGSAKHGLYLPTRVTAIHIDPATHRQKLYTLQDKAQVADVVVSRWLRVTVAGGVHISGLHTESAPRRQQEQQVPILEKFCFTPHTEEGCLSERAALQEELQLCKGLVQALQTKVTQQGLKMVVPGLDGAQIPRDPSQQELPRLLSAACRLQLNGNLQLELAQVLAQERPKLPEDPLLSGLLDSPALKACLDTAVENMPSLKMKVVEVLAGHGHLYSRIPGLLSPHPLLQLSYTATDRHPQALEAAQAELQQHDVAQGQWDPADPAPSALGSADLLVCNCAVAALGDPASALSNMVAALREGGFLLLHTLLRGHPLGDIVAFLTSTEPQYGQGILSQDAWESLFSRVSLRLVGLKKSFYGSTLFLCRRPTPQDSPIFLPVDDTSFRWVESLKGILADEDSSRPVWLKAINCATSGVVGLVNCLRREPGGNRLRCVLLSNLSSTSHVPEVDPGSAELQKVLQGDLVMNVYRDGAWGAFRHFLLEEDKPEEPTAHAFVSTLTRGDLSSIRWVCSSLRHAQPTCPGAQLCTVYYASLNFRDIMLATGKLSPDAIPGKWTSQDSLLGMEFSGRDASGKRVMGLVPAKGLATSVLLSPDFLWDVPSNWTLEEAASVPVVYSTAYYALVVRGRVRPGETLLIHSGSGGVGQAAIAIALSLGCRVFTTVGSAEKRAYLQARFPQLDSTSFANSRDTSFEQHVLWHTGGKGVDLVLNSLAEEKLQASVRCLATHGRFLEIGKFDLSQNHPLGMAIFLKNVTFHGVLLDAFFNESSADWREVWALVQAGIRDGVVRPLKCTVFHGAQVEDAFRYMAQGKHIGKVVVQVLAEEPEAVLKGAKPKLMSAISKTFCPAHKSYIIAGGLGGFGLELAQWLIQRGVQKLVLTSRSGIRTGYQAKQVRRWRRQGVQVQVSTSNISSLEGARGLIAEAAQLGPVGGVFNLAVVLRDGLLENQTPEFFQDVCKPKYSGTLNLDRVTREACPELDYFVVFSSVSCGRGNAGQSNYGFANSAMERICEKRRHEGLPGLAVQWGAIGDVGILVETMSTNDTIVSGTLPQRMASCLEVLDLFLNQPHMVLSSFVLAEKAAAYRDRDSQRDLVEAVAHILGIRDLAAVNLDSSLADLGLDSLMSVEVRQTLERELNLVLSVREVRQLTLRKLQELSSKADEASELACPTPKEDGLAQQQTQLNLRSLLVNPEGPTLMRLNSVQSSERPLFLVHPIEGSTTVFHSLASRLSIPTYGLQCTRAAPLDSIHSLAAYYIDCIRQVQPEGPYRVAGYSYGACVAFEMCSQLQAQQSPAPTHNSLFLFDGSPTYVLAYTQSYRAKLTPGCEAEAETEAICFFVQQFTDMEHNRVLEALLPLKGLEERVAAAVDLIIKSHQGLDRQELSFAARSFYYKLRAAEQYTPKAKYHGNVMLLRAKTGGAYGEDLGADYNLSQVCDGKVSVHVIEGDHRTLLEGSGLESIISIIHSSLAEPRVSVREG
Method: as §1

Plasma stability, human = assay type: in vitro ADME
Source text: (§2) Plasma stability is a measure of the stability of small molecules and peptides in plasma and is an important parameter, which can strongly influence the in vivo efficacy of a test compound. Drug candidates are exposed to enzymatic processes (proteinases, esterases) in plasma, and they can undergo intramolecular rearrangement or bind irreversibly (covalently) to proteins.

[4] = test system: prostate cancer PC-3 cells; assay: De novo palmitate synthesis from 13C-glucose in whole cells (GC-MS); assay type: cell-based
Method: The ability of compounds to block biosynthesis of palmitate in whole cells (prostate cancer PC-3 cells) was measured by feeding cells isotopically labeled glucose (^13C-glucose) and measuring the incorporation of ^13C into palmitate by GC-MS.
Prostate cancer PC-3 cell were incubated with 20 μM of FASN inhibitors and labeled with [U-13C]-glucose for 24 h, pH 7.8. The incorporation of ^13C into palmitate from labeled glucose was determined by extracting fatty acids and resolving them by GC-MS. The mass distributions for fatty acid methyl esters for C16:0 (palmitate) were corrected for isotope natural abundance, and the corrected isotope patterns were used to calculate the labeling of acetyl-CoA in palmitate based on a binomial probability distribution of the incorporation of labeled acetyl units into the fatty acid chain.

[5] = Chemical stability in 1x PBS; assay type: physicochemical
in vitro = conditions: human
Plasma stability, mouse = assay type: in vitro ADME
Source text: as §2

[6] = Aqueous solubility in pION's buffer; assay type: physicochemical
FASN-TE = FASN-TE (Homo sapiens, UniProt P49327); assay: In-vitro biochemical assay measuring FAS-TE inhibition (OMFH substrate, fluorescence)
FASN-TE, sequence (P49327 2207-2511 limits assumed): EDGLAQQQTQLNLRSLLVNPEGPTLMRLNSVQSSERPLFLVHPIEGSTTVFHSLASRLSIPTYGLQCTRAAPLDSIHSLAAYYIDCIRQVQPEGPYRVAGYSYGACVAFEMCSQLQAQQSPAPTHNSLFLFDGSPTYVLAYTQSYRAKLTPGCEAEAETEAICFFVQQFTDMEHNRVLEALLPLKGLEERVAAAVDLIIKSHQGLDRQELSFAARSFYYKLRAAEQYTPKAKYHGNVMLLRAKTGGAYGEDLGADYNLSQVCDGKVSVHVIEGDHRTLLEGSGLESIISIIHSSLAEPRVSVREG
Method: Min wells: Substrate+No enzyme+DMSO, Max wells: Substrate+Enzyme+DMSO, Sample wells: Substrate+Enzyme+Test compounds, Reference compound: Orlistat (make a fresh 10 mM stock in DMSO each time). 384-well black, low-volume plate (Greiner #784076)
Assay Protocol: • 1) ECHO transfer 160 nL of 125× Compound (or DMSO for control wells) per well. • 2) For Max and Sample wells: Add 10 μL of Enzyme (2×; 1.8 μM) prepared in RXN Buffer. For Min wells: Add 10 μL of RXN Buffer (No Enzyme). • 3) For all wells: Add 10 μL of Substrate (2×; 20 μM) prepared in diH2O+10% DMSO. • 4) Centrifuge plate for 1 minute at 1,000 rpm. • 5) Measure fluorescence every 5 minutes for 1-1.5 hours using the BMG POLARstar (ex 485 nm/em 520 nm; Gain=1015; 25 flashes). • 6) All volumes can be adjusted but the final DMSO concentration should be kept at about 6%.
Data Analysis: • 1) Calculate slopes and express as % Activity (Min wells=0%; Max wells=100%). • 2) Then, using Prism, calculate the IC50 values.

CCC(CC)C(=O)Nc1nc(-c2ccc(S(=O)(=O)N3CCOCC3)cc2)cs1 [Compound 16, 2-Ethyl-N-(4-(4-(morpholinosulfonyl)phenyl)thiazol-2-yl)butanamide]
Hepatic Microsome Stability (% Remaining at 1 hr) ([1]; Human, 1 hr): 4.93%
liver microsome stability ([1]; human liver microsomes): poor stability
Papp (PAMPA permeability; Donor pH 5.0, Acceptor pH 7.4): 914 ×10⁻⁶ cm/s
Papp (PAMPA permeability; Donor pH 6.2, Acceptor pH 7.4): 961 ×10⁻⁶ cm/s
Papp (PAMPA permeability; pH 7.4, Donor pH 7.4, Acceptor pH 7.4): 653 ×10⁻⁶ cm/s
PAMPA permeability (PAMPA permeability; across a range of pH of the donor compartment): very good permeability
solubility [2]: 0.02 µg/mL and 0.05 µM
competition for activity based labeling of other serine hydrolases [3]: no competition
inhibition of FASN (blocking of FP-TAMRA binding) (FASN): showed inhibition of FASN
Plasma Stability (% Remaining at 3 hrs) (Plasma stability, human; Human, 3 hrs): 100/100%
plasma stability (Plasma stability, human; human plasma): good stability
inhibition of palmitate synthesis in whole cells [4]: inhibitory activity
de novo palmitate synthesis/DMSO (%) ([4]; 20 μM, [U-13C]-glucose 24 h, pH 7.8, relative to DMSO control): 50%
Chemical Stability in 1x PBS pH 7.4 (% remaining after 48 hrs) ([5]; 1x PBS pH 7.4, 48 hrs): 100/100%
Chemical Stability in 1x PBS pH 7.4 with 50% ACN (% remaining after 48 hrs) ([5]; with 50% ACN, 48 hrs): 100/100%
CC50 (in vitro): > 50000 nM
Plasma Stability (% Remaining at 3 hrs) (Plasma stability, mouse; Mouse, 3 hrs): 100/100%
plasma stability (Plasma stability, mouse; mouse plasma): good stability
solubility ([6]; aqueous buffer, pH 5.0): 0.19 µg/mL and 0.45 µM
solubility ([6]; pH 6.2, aqueous buffer): 0.06 µg/mL and 0.14 µM
solubility ([6]; pH 7.4, aqueous buffer): 0.13 µg/mL and 0.31 µM
IC50 (FASN-TE): 334 nM
